The record followed here is ChEMBL document CHEMBL5512598, “Current advances and development strategies of orally bioavailable PROTACs” (Eur J Med Chem, 2023).

Data set [1] in a line: AUC (0 to t) in Sprague-Dawley rat at 40 mg/kg, IG measured up to 24 hrs by LC-MS/MS analysis. The class given is ADME, organism-based. Particulars: in vivo, po.
Data set [2] in a line: Oral bioavailability in Sprague-Dawley rat at 40 mg/kg measured up to 24 hrs by LC-MS analysis. The class given is ADME, organism-based. Particulars: in vivo.
Data set [3] in a line: Half life in Sprague-Dawley rat at 40 mg/kg, po measured after 24 hrs by LC-MS/MS analysis. The class given is ADME, organism-based. Particulars: in vivo.
Data set [4] can be described thus: Cmax in Sprague-Dawley rat at 40 mg/kg, po measured after 24 hrs by LC-MS/MS analysis. It counts as ADME, organism-based. The settings on record: in vivo.
Data set [5] can be described thus: Tmax in Sprague-Dawley rat at 40 mg/kg, IG measured up to 24 hrs by LC-MS/MS analysis. It counts as ADME, organism-based. Particulars: in vivo, po.
Data set [6] addresses T1, Protein cereblon/Leucine-rich repeat serine/threonine-protein kinase 2 (Homo sapiens, UniProt Q5S007+Q96SW2). As to the kind of experiment: PROTAC activity at CRBN/LRRK2 in human MOLT-4 cells assessed as induction of LRRK2 degradation incubated for 48 hrs by Western blot analysis. The class given is cell-based.
Target sequence in this assay (Q5S007 whole entry): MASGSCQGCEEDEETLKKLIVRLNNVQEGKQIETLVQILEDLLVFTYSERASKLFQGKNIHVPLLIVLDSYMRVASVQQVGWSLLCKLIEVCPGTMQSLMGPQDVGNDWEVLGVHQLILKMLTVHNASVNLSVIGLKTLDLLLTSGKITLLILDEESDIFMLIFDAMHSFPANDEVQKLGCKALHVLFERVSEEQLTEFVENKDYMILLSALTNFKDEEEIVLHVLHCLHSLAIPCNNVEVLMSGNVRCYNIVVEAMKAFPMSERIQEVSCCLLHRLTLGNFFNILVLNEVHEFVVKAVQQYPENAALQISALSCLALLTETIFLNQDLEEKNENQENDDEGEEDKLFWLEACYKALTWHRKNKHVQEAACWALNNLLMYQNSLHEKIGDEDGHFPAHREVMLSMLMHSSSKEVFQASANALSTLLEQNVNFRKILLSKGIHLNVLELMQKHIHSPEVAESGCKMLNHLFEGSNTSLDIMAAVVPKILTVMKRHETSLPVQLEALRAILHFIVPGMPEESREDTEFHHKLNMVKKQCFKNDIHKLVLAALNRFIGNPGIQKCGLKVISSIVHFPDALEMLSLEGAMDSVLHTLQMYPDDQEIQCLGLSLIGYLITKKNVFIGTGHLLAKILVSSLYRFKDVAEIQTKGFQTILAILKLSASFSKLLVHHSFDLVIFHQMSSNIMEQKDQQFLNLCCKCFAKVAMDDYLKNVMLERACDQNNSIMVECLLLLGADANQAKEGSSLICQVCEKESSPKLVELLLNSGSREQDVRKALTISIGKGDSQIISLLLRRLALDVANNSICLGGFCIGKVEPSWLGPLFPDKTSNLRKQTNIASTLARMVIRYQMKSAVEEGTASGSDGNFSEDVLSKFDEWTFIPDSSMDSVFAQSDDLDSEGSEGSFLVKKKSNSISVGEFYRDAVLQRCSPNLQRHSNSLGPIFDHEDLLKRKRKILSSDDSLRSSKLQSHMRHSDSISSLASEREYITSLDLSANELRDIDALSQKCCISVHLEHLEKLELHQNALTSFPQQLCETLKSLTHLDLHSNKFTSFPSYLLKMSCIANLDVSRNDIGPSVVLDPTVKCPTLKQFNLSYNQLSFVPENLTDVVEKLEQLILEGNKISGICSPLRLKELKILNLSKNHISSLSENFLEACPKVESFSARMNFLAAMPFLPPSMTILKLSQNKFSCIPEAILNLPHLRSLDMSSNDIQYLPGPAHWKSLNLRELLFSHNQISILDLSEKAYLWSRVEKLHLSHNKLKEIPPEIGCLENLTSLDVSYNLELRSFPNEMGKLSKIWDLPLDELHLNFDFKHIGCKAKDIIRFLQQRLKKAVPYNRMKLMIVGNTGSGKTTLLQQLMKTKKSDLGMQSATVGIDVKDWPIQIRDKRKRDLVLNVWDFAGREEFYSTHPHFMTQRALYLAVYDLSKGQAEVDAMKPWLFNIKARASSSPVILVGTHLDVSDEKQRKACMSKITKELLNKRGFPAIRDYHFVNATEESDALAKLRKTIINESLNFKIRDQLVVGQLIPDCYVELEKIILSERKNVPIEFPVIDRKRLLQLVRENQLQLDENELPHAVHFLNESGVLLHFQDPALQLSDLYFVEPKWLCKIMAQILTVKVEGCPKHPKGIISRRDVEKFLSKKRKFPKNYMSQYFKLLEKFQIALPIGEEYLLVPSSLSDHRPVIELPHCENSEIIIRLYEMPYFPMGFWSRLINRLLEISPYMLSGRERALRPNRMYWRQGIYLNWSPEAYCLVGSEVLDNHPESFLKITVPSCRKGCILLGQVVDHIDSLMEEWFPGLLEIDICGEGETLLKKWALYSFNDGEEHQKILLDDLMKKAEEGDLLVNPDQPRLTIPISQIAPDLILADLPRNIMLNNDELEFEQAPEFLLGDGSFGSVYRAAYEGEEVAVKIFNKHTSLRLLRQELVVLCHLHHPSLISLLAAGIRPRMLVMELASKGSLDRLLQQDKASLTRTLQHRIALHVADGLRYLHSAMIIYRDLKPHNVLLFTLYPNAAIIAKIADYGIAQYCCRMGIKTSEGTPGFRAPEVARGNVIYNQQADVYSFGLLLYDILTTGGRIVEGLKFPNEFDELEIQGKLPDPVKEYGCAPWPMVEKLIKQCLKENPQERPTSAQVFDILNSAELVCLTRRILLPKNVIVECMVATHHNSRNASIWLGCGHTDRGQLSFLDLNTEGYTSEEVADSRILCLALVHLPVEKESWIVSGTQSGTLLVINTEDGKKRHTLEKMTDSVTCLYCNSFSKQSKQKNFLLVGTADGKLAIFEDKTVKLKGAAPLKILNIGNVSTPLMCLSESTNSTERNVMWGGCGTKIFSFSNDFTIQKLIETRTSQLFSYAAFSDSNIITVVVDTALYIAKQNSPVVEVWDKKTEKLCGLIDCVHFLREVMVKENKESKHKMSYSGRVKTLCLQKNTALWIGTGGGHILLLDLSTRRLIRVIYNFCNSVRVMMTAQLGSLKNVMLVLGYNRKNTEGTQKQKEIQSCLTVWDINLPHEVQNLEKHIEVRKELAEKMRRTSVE
Target sequence in this assay (Q96SW2 whole entry): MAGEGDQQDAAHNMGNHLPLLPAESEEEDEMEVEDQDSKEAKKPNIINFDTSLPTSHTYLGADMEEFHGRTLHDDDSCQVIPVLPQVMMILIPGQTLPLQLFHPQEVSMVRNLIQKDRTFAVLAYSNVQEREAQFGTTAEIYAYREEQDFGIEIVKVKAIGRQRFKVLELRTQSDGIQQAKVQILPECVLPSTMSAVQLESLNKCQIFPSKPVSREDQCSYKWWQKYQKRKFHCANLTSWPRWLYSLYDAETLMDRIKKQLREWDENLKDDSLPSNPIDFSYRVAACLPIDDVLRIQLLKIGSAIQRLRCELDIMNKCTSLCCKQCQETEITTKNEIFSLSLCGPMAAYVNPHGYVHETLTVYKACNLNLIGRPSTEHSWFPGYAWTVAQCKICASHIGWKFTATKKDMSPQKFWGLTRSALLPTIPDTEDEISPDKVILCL
In data set [7] the target is T1, Protein cereblon/Leucine-rich repeat serine/threonine-protein kinase 2. The experiment in a line: PROTAC activity at CRBN/LRRK2 in human MOLT-4 cells assessed as induction of LRRK2 degradation at 1 uM by Western blot analysis relative to control. It counts as cell-based.
Target sequence in this assay (Q5S007 whole entry, looked up): as the sequence (Q5S007 whole entry) above
Target sequence in this assay (Q96SW2 whole entry, looked up): as the sequence (Q96SW2 whole entry) above
The nature of data set [8]: Half life in CD-1 mouse at 10 mg/kg, po measured for 24 hrs by LC-MS/MS analysis. The settings on record: in vivo. It counts as ADME, organism-based.
Data set [9] can be described thus: Cmax in CD-1 mouse plasma at 10 mg/kg, po by LC-MS/MS analysis. It counts as ADME, organism-based.
Data set [10] in a line: AUC (0 to t) in CD-1 mouse at 10 mg/kg, po measured for 24 hrs by LC-MS/MS analysis. The class given is ADME, organism-based. Particulars: in vivo.
Data set [11] is described as follows: Half life in mouse at 30 mg/kg, po measured upto 24 hrs by LC-MS/MS analysis. It counts as ADME, organism-based. Particulars: in vivo.
The nature of data set [12]: AUC in mouse at 30 mg/kg, po. The class given is ADME, organism-based. The settings on record: in vivo.
A short description of data set [13]: AUC (0 to t) in BALB/c mouse at 30 mg/kg measured for 24 hrs by UPLC-MS/MS analysis. Particulars: in vivo. It counts as ADME, organism-based.
Data set [14] can be described thus: Oral bioavailability in BALB/c mouse at 30 mg/kg measured for 24 hrs by UPLC-MS/MS analysis. It counts as ADME, organism-based. Particulars: in vivo.
Data set [15] in a line: Tmax in BALB/c mouse at 30 mg/kg measured for 24 hrs by UPLC-MS/MS analysis. The class given is ADME, organism-based. Particulars: in vivo.
Data set [16] can be described thus: Cmax in BALB/c mouse at 30 mg/kg measured for 24 hrs by UPLC-MS/MS analysis. The settings on record: in vivo. The class given is ADME, organism-based.
Data set [17] can be described thus: Cmax in mouse at 10 mg/kg, po measured upto 24 hrs by LC-MS/MS analysis. It counts as ADME, organism-based. The settings on record: in vivo.
The target of data set [18] is T2, Protein cereblon/Tyrosine-protein kinase BTK (Homo sapiens, UniProt Q06187+Q96SW2). As to the kind of experiment: PROTAC activity at CRBN/BTK in human TMD8 cells assessed as maximal degradation of BTK protein incubated for 24 hrs by immunoblotting analysis relative to control. The class given is cell-based.
Target sequence in this assay (Q06187 2-659 limits assumed): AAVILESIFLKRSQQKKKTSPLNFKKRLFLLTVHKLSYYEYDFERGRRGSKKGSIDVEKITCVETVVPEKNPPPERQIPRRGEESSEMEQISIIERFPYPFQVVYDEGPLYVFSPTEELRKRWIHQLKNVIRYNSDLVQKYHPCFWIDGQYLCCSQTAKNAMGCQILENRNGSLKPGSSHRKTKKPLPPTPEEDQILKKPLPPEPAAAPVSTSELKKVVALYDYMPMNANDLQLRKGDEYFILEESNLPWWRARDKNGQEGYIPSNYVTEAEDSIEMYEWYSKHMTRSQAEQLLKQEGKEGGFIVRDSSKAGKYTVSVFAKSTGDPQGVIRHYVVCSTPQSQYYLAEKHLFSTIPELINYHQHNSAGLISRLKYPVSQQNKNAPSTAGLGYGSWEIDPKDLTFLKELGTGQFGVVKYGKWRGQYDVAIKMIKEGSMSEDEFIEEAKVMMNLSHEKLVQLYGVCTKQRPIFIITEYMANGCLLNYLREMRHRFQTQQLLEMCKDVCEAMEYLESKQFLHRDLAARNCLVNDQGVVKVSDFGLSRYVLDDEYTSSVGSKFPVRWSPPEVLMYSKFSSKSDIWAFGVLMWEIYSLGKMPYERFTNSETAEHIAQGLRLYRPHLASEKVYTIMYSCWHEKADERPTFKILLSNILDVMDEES
Target sequence in this assay (Q96SW2 whole entry partner): as the sequence (Q96SW2 whole entry) above
Data set [19] addresses T3, Protein cereblon/Tyrosine-protein kinase BTK (Homo sapiens, UniProt Q06187+Q96SW2, C481S). The experiment in a line: PROTAC activity at CRBN/BTK C481S mutant in human TMD8 cells assessed as degradation of BTK protein incubated for 4 hrs by HTRF assay. It counts as cell-based.
Data set [20] in a line: Oral bioavailability in mouse. The class given is ADME, organism-based. The settings on record: in vivo.
Data set [21] concerns the target T2, Protein cereblon/Tyrosine-protein kinase BTK. The experiment in a line: PROTAC activity at CRBN/BTK in human TMD8 cells assessed as induction of BTK degradation incubated for 24 hrs by immunoblotting analysis. It counts as cell-based.
Target sequence in this assay (Q06187 whole entry): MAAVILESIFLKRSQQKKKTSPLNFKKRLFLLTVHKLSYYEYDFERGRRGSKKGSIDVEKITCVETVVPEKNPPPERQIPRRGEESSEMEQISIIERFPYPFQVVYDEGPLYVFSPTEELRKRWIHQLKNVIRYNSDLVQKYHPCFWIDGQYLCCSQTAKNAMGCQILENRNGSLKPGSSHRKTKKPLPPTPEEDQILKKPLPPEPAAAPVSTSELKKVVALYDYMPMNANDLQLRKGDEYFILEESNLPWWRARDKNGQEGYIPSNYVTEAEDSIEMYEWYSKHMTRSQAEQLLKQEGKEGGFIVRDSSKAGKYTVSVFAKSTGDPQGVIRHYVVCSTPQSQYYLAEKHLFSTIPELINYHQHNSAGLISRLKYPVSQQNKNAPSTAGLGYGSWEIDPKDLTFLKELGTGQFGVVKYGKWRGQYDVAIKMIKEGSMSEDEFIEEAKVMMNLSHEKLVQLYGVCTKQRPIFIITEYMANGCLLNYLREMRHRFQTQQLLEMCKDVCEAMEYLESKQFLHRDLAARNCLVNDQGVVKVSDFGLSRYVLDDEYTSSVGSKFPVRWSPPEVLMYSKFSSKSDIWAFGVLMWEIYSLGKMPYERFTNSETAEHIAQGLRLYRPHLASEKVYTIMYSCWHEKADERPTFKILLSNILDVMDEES
Target sequence in this assay (Q96SW2 whole entry): as the sequence (Q96SW2 whole entry) above
Data set [22] in a line: Oral bioavailability in rat at 5 mg/kg by LC-MS/MS analysis. It counts as ADME, organism-based. The settings on record: in vivo.
Data set [23] is described as follows: Oral bioavailability in mouse at 5 mg/kg by LC-MS/MS analysis. The settings on record: in vivo. The class given is ADME, organism-based.
Data set [24] has as its system von Hippel-Lindau disease tumor suppressor/Tyrosine-protein kinase BTK (Homo sapiens), Q06187+P40337 [C481S]. As to the kind of experiment: PROTAC activity at VHL/BTK C481S mutant in human TMD8 cells assessed as maximum degradation of protein relative to control. The class given is cell-based.
Data set [25] concerns the target von Hippel-Lindau disease tumor suppressor/Tyrosine-protein kinase BTK (Homo sapiens, UniProt Q06187+P40337, C481S). The experiment in a line: PROTAC activity at VHL/BTK C481S mutant in human TMD8 cells assessed as induction of BTK degradation incubated for 24 hrs by immunoblotting analysis. It counts as cell-based.
Data set [26] deals with T3, Protein cereblon/Tyrosine-protein kinase BTK. As to the kind of experiment: PROTAC activity at CRBN/BTK in human TMD8 cells assessed as protein degradation. The class given is cell-based.
The test system of data set [27] is Protein cereblon/Tyrosine-protein kinase BTK (Homo sapiens), Q06187+Q96SW2 [C481S]. The experiment in a line: PROTAC activity at CRBN/BTK in human TMD8 cells assessed as maximal protein degradation relative to control. It counts as cell-based.

T3 sequence (Q06187 2-659 C481S limits assumed, stated change not applied): as the sequence (Q06187 2-659 limits assumed) above, with C480S counted along it
T3 sequence (Q96SW2 whole entry, stated change not applied): as the sequence (Q96SW2 whole entry) above
von Hippel-Lindau disease tumor suppressor/Tyrosine-protein kinase BTK, sequence (P40337 whole entry, stated change not applied): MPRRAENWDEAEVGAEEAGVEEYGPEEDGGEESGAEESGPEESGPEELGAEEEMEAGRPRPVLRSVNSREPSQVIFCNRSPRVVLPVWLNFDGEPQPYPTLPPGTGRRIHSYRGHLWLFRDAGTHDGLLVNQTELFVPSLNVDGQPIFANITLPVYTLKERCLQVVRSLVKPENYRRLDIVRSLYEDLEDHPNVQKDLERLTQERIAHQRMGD
von Hippel-Lindau disease tumor suppressor/Tyrosine-protein kinase BTK, sequence (Q06187 2-659 C481S limits assumed, stated change not applied): as the sequence (Q06187 2-659 limits assumed) above, with C480S counted along it

Compound `N#Cc1cccc(-c2ccc(=O)n(Cc3cccc(-c4ncc(OCC5CCN(CC(=O)N6CCN(c7ccc8c(c7)C(=O)N(C7CCC(=O)NC7=O)C8=O)CC6)CC5)cn4)c3)n2)c1` (configuration not stated) showed an AUC(0-t) at 24 h in data set [1] of 74.2 ng·h/mL. In data set [2], this compound registered a bioavailability of 0.7%. For the same compound, the half-life in data set [3] was 950 min. In data set [4], the peak level (Cmax) was 8.47 ng/mL. Moreover, the Tmax in data set [5] came out at 1.75 h.
For the compound `Cc1ncsc1-c1ccc(CNC(=O)[C@@H]2C[C@@H](O)CN2C(=O)[C@@H](NC(=O)CCCCCCCCCCNC(=O)OC2C[C@@H](C)C=C3C=C[C@H](C)[C@H](CC[C@@H](O)C[C@H](O)CC(=O)O)[C@H]32)C(C)(C)C)cc1` (some centres not stated), the DC50 in data set [6] came to 120 nM. Moreover, the Emax in [7] came to 65%.
On to `COc1cc(N2CCC(N3CCN(CCC#Cc4cccc5c4CN(C4CCC(=O)NC4=O)C5=O)CC3)CC2)ccc1Nc1ncc(Cl)c(Nc2ccccc2P(C)(C)=O)n1` (configuration not stated), for which the half-life in [8] is 125 min. Also, the concentration in data set [9] peaked (Cmax) at 3680 ng/mL. In data set [10], this compound came in with an AUC(0-t) at 24 h of 19700 ng·h/mL.
For the compound `O=C1CC[C@H](N2Cc3cc(N4CCN(CC5CCN(c6ccc([C@@H]7c8ccc(O)cc8CC[C@@H]7c7ccccc7)cc6)CC5)CC4)ccc3C2=O)C(=O)N1` [VEPDEGESTRANT], the half-life in data set [11] was 1680 min. The compound also displayed an AUC in data set [12] of 5720 ng·h/mL.
In turn, `Cc1ncsc1-c1ccc(CNC(=O)[C@@H]2C[C@@H](O)CN2C(=O)[C@@H](NC(=O)COCCCCOc2ccc(C3CCN(C4=Nn5c(nnc5C(F)(F)F)CC4)CC3)cc2)C(C)(C)C)cc1` showed an AUC(0-t) at 24 h in data set [13] of 18000 ng·h/mL. The compound further registered a bioavailability in data set [14] of 23%. The Tmax in [15] worked out at 1.67 h. The compound also gave a Cmax in data set [16] of 7060 ng/mL.
With `NC(=O)c1ncc(N2CCCCC2)nc1Nc1ccc(C2CCN(C[C@@H]3CCN(c4ccc5c(c4)C(=O)N(C4CCC(=O)NC4=O)C5=O)C3)CC2)cc1` (some centres not stated), the concentration in data set [17] peaked (Cmax) at 1300 nM. The Emax in data set [18] was 86%. The DC50 worked out at 13 nM in data set [19] and 4.5 nM in [21]. This compound also showed a bioavailability in [20] of 8%.
As to `N#Cc1ccc(O[C@H]2CC[C@H](NC(=O)c3ccc(N4CCC(CN5CCN(c6cc7c(cc6F)C(=O)N(C6CCC(=O)NC6=O)C7=O)CC5)CC4)nn3)CC2)cc1Cl` (some centres not stated) [BAVDEGALUTAMIDE], the bioavailability in data set [22] was determined as 23.8%; in data set [23] it was 37.9%.
Turning to `CN1CCN([C@@H]2CCCN(c3cnc(C(N)=O)c(Nc4ccc(C5CCN(C(=O)CCOCCNc6cccc7c6C(=O)N(C6CCC(=O)NC6=O)C7=O)CC5)cc4)n3)C2)C1=O` (some centres not stated), in data set [24], the Emax turned out to be 86%. Besides, the DC50 in data set [25] is 7 nM.
Take `CN1CCN([C@@H]2CCCN(c3cnc(C(N)=O)c(Nc4ccc(C5CCN(C[C@@H]6CCN(c7ccc8c(c7)C(=O)N(C7CCC(=O)NC7=O)C8=O)C6)CC5)cc4)n3)C2)C1=O` (some centres not stated): in data set [26], the DC50 stood at 0.5 nM. Also, the Emax in [27] amounted to 96%.
